These results are taken from patent US12678458B2, “Antiseptic composition” (BOBS SILVER, priority 2020, dated 2026).

≈ marks a conversion by molar mass, not a printed value.

The test system of one experiment is HRV-A16. As to conditions: well-known antiviral compound; cited from earlier work.
Experiment [1] concerns Candida albicans ATCC 10231 (NBIMCC 74). The experiment can be described thus: Agar diffusion test, inhibitory zones. Format: cell-based. The note with it: C. albicans; 0.1 ml in 9 mm wells.
In a further experiment the test system is Salmonella enterica. The experiment can be described thus: microbe, parasite or virus in culture. Format: cell-based.
Another experiment deals with Total Gram-positive. In words: organism not typed. It is filed as cell-based.
In experiment [2] the test system is Total Gram-positive bacteria. Format: cell-based.
The test system of a further experiment is Staphylococcus aureus. The experiment can be described thus: Minimum inhibitory concentrations, two-fold serial dilution in agar. Format: cell-based. The note with it: S. aureus.
The subject of experiment [3] is Staphylococcus aureus subsp. aureus ATCC-6538 (NBIMCC 3359). The experiment can be described thus: Agar diffusion test, inhibitory zones. Format: cell-based. As to conditions: S. aureus; 0.1 ml in 9 mm wells.
Experiment [4] deals with Total (all microorganisms). In words: Minimum inhibitory concentrations, two-fold serial dilution in agar. It is filed as cell-based.
The subject of another experiment is Clostridium perfringens. The experiment can be described thus: microbe, parasite or virus in culture. It is filed as cell-based.
Experiment [5] deals with Esherichia coli ATCC-8739 (NBIMCC 3397). In words: Agar diffusion test, inhibitory zones. As to conditions: E. coli; 0.1 ml in 9 mm wells. It is filed as cell-based, Escherichia coli.
Experiment [6] has as its system Total (all microorganisms). The experiment can be described thus: Agar diffusion test, inhibitory zones. Format: cell-based. (In general: Agar diffusion results depend on both activity and mobility in agar.)
Experiment [7] has as its system Total Gram-negative. The experiment can be described thus: organism not typed. It is filed as cell-based.
Experiment [8] relates to Pseudomonas aeruginosa. In words: Minimum inhibitory concentrations, two-fold serial dilution in agar. It is filed as cell-based. As to conditions: P. aeruginosa.
The subject of experiment [9] is Total Gram-negative. In words: Agar diffusion test, inhibitory zones. Format: cell-based.
The next experiment concerns Esherichia coli. In words: Minimum inhibitory concentrations, two-fold serial dilution in agar. It is filed as cell-based, Escherichia coli. The note with it: E. coli.
The subject of experiment [10] is Pseudomonas aeruginosa. The experiment can be described thus: Agar diffusion test, inhibitory zones. It is filed as cell-based. The note with it: P. aeruginosa; 0.1 ml in 9 mm wells.
Experiment [11] relates to Streptococcus pyogenes. The experiment can be described thus: Minimum inhibitory concentrations, two-fold serial dilution in agar. As to conditions: S. pyogenes. Format: cell-based.
The test system of experiment [12] is Total bacteria. The experiment can be described thus: Agar diffusion test, inhibitory zones. Format: cell-based.
Another experiment relates to Candida albicans. In words: Minimum inhibitory concentrations, two-fold serial dilution in agar. The note with it: C. albicans. It is filed as cell-based.
The test system of experiment [13] is Salmonella enterica subsp. enterica ATCC 1304 (NBIMCC 8691). The experiment can be described thus: Agar diffusion test, inhibitory zones. The note with it: S. enterica; 0.1 ml in 9 mm wells. It is filed as cell-based.
Experiment [14] deals with Streptococcus pyogenes. In words: Agar diffusion test, inhibitory zones. It is filed as cell-based. The note with it: S. pyogenes; 0.1 ml in 9 mm wells.
Experiment [15] concerns Total bacteria. In words: Minimum inhibitory concentrations, two-fold serial dilution in agar. It is filed as cell-based.
Experiment [16] concerns Clostridium perfringens ATCC 13124 (NBIMCC 8615). Format: cell-based. The note with it: C. perfringens; 0.1 ml in 9 mm wells.

`CCOC(=O)/C=C/[C@H](C[C@@H]1CCNC1=O)NC(=O)[C@@H](CC(=O)[C@@H](NC(=O)c1cc(C)on1)C(C)C)Cc1ccc(F)cc1` [rupintrivir]: the antiviral response result with HRV-A16 is listed as “almost complete response”.

With `CS(=O)(=O)c1ccc([C@@H](O)[C@@H](CO)NC(=O)C(Cl)Cl)cc1` [Thiamphenicol, thiamphenicol], the “Inhibitory zones in mm” value in experiment [1] amounted to 28.7 ± 3.7 mm; in experiment [2], 24.3 ± 2.1 mm; in experiment [3], 25.7 ± 3.3 mm; in experiment [5], 36.0 ± 0.8 mm; in [6], 29.7 ± 5.3 mm; in the experiment with Total Gram-negative [9], 35.4 ± 0.5 mm. Also, the “Inhibitory zones in mm” value in the experiment with Pseudomonas aeruginosa [10] is reported as 34.8 ± 0.8 mm; in the experiment on Total bacteria [12], 29.9 ± 5.7 mm; in experiment [13], 35.3 ± 0.8 mm; with Streptococcus pyogenes [14] it was 26.0 ± 4.5 mm; in experiment [16], 21.3 ± 0.5 mm. For the same molecule, the “Th D” value in the experiment on Salmonella enterica (S. enterica) came out at 64 µg/mL; with Total Gram-positive it was 42.00 µg/mL; in the experiment on Staphylococcus aureus, 64 µg/mL; in experiment [4], 84.00 µg/mL; in the experiment on Clostridium perfringens (C. perfringens) it was 16 µg/mL; in the experiment with Total Gram-negative [7], 64.00 µg/mL. The “Th D” value was 64 µg/mL in the experiment on Pseudomonas aeruginosa [8]; 64 µg/mL in the experiment with Esherichia coli; 128 µg/mL in the experiment on Streptococcus pyogenes [11]; 128 µg/mL with Candida albicans; 66.7 µg/mL with Total bacteria [15]. The MIC50 in the experiment with Salmonella enterica (Salmonella enterica, read-out: Th MIC50) stood at 16 µg/mL (≈ 44.9 µM); in the experiment on Total Gram-positive (read-out: Th MIC50), 21 µg/mL (≈ 59 µM); with Staphylococcus aureus (Staphylococcus aureus, read-out: Th MIC50), 16 µg/mL (≈ 44.9 µM); in [4] (Total (all microorganisms), read-out: Th MIC50) it was 16.6 µg/mL (≈ 46.5 µM); with Clostridium perfringens (Clostridium perfringens, read-out: Th MIC50), 4 µg/mL (≈ 11.2 µM); in the experiment on Total Gram-negative [7] (read-out: Th MIC50), 10.7 µg/mL (≈ 30 µM). The MIC50 in the experiment on Pseudomonas aeruginosa [8] (Pseudomonas aeruginosa, read-out: Th MIC50) stood at 8 µg/mL (≈ 22.5 µM); in the experiment with Esherichia coli (Escherichia coli, read-out: Th MIC50), 8 µg/mL (≈ 22.5 µM); in the experiment on Streptococcus pyogenes [11] (Streptococcus pyogenes, read-out: Th MIC50), 32 µg/mL (≈ 89.8 µM); with Candida albicans (Candida albicans, read-out: Th MIC50), 32 µg/mL (≈ 89.8 µM); in the experiment with Total bacteria [15] (Total bacteria, read-out: Th MIC50), 14 µg/mL (≈ 39.3 µM).
